Data taken from ChEMBL document CHEMBL4311993, “Structure-activity relationship study of NPP1 inhibitors based on uracil-N1-(methoxy)ethyl-β-phosphate scaffold” (Eur J Med Chem, 2019).
Active and inactive are the calls of the source.

Columns and labels:
[1] = molecular target: T1, Ectonucleoside triphosphate diphosphohydrolase 2 (Homo sapiens) (UniProt Q9Y5L3); assay: Inhibition of human NTPdase-2 expressed in COS7 cell membranes at 100 uM using ATP as substrate preincubated for 3 mins followed by susbtrate addition and measured after 10 mins by malachite green dye based method
T1 sequence (whole entry): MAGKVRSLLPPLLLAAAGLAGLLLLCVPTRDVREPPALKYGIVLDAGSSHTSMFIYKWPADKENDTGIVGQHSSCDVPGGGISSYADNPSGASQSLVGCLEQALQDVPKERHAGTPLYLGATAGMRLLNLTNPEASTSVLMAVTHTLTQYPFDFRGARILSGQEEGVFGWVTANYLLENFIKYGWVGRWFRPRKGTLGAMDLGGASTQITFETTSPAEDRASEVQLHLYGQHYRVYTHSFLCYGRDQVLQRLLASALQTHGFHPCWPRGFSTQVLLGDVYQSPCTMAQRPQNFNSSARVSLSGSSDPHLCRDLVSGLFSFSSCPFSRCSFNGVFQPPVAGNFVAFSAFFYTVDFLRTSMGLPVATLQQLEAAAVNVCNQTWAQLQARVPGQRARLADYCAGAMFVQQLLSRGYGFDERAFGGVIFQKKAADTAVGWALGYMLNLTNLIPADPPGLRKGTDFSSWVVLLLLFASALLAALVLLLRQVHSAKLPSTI

[2] = molecular target: T2, Ectonucleoside triphosphate diphosphohydrolase 1 (Homo sapiens) (UniProt P49961); assay: Inhibition of human NTPdase-1 expressed in COS7 cell membranes at 100 uM using ATP as substrate preincubated for 3 mins followed by susbtrate addition and measured after 10 mins by malachite green dye based method
T2 sequence (whole entry): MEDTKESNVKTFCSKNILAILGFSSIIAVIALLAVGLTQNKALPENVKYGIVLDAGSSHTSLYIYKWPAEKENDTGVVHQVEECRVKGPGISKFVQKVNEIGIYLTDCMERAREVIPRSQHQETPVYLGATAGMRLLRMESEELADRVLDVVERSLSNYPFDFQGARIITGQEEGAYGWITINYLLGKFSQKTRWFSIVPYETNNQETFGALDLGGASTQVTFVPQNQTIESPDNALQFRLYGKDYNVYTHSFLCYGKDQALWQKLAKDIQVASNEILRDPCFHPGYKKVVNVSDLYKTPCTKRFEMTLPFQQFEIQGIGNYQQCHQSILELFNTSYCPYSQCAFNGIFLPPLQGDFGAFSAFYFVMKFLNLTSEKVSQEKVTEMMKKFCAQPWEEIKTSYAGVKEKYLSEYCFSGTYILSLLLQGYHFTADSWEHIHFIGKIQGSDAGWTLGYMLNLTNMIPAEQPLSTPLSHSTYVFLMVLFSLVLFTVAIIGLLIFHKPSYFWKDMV

[3] = molecular target: T3, Ectonucleoside triphosphate diphosphohydrolase 8 (Homo sapiens) (UniProt Q5MY95); assay: Inhibition of human NTPdase-8 expressed in COS7 cell membranes at 100 uM using ATP as substrate preincubated for 3 mins followed by susbtrate addition and measured after 10 mins by malachite green dye based method
T3 sequence (whole entry): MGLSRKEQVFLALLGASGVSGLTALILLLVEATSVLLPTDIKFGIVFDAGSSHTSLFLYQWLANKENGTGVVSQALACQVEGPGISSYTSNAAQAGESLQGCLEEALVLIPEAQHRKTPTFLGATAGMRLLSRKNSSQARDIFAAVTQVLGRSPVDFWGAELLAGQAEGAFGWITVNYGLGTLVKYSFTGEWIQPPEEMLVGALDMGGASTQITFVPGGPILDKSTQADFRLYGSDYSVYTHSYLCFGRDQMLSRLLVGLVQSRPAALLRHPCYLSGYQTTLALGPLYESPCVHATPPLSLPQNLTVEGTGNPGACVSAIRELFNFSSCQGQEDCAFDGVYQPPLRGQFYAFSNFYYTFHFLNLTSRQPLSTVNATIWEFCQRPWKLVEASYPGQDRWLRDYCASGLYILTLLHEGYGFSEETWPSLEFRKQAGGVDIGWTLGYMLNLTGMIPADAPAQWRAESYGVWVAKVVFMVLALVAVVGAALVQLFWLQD

[4] = molecular target: P2Y purinoceptor 4 (Homo sapiens) (UniProt P51582); assay: Agonist activity at human P2Y4 receptor expressed in AD293 cells assessed as inositol-1-phosphate accumulation at 0.1 to 100 uM; type: functional, cell-based
[5] = molecular target: P2Y purinoceptor 4 (Homo sapiens) (UniProt P51582); assay: Antagonist activity at human P2Y4 receptor expressed in AD293 cells assessed as inhibition of UTP-induced inositol-1-phosphate accumulation at 0.1 to 100 uM; type: functional, cell-based
[6] = molecular target: T4, Ectonucleoside triphosphate diphosphohydrolase 3 (Homo sapiens) (UniProt O75355); assay: Inhibition of human NTPdase-3 expressed in COS7 cell membranes at 100 uM using ATP as substrate preincubated for 3 mins followed by susbtrate addition and measured after 10 mins by malachite green dye based method
T4 sequence (whole entry): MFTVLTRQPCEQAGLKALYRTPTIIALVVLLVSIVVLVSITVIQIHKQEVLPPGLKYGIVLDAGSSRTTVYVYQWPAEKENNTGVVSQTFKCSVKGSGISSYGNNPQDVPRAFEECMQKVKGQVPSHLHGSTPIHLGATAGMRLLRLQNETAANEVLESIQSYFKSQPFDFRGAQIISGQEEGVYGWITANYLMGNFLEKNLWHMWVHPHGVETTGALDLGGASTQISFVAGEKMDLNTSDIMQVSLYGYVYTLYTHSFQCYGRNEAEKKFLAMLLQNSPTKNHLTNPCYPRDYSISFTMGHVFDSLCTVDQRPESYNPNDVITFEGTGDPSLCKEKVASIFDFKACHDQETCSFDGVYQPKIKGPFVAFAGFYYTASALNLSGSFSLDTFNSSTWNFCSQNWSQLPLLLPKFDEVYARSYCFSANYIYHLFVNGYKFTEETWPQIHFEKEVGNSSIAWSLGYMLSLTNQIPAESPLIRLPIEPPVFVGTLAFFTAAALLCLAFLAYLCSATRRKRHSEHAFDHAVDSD

[7] = molecular target: P2Y purinoceptor 6 (Homo sapiens) (UniProt Q15077); assay: Antagonist activity at human P2Y6 receptor expressed in AD293 cells assessed as inhibition of UDP-induced inositol-1-phosphate accumulation at 0.1 to 100 uM; type: functional, cell-based
[8] = molecular target: P2Y purinoceptor 6 (Homo sapiens) (UniProt Q15077); assay: Agonist activity at human P2Y6 receptor expressed in AD293 cells assessed as inositol-1-phosphate accumulation at 100 uM; type: functional, cell-based

Chain of P2Y purinoceptor 6 (Homo sapiens) (Q15077 whole entry): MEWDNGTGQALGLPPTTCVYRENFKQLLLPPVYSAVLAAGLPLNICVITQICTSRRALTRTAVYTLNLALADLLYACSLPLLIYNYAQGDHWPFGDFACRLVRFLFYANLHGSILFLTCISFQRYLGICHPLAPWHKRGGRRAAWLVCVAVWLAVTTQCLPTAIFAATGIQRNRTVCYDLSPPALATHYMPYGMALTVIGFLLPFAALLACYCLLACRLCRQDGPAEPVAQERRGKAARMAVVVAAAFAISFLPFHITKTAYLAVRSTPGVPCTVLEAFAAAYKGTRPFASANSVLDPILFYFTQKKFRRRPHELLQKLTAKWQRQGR
Chain of P2Y purinoceptor 4 (Homo sapiens) (P51582 whole entry): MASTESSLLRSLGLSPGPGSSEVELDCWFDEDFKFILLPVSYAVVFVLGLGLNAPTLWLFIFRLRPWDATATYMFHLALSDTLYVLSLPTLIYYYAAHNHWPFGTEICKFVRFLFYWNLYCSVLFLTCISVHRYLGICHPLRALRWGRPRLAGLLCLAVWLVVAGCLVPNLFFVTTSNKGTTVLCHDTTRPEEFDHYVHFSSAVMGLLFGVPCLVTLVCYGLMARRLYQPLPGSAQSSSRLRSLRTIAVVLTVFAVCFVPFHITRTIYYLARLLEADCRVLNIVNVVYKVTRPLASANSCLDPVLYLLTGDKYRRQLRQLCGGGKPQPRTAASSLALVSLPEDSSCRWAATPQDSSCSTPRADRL

SMILES | inhibition [1] | inhibition call at 100 uM (active/not active) [2] | Inhibition call (active/not active) [3] | Activity [4] | inhibition [5] | inhibition [6] | inhibition [7] | Activity [8]
O=c1ccn(COCCOP(=O)(O)C(Cl)(Cl)P(=O)(O)O)c(=O)[nH]1 | Active | Active | Active | inactive | inactive | Active | inactive | –
O=c1ccn(COCCOP(=S)(S)OP(=O)(O)C(Cl)(Cl)P(=O)(O)O)c(=O)[nH]1 (stereo not given) | Active | Active | Active | inactive | inactive | Active | inactive | Active
O=c1ccn(COCCOP(=S)(S)OP(=O)(O)CP(=O)(O)O)c(=O)[nH]1 (stereo not given) | Active | Active | Active | inactive | inactive | Active | inactive | Active
O=c1ccn(COCCO[PH](=O)O)c(=O)[nH]1 | inactive | inactive | inactive | inactive | inactive | inactive | inactive | –
O=c1ccn(COCCOP(=O)(O)O)c(=O)[nH]1 | inactive | inactive | inactive | inactive | inactive | inactive | inactive | –
O=c1ccn(COCCOP(=O)(O)CP(=O)(O)O)c(=O)[nH]1 | Active | Active | Active | inactive | inactive | Active | inactive | Active
